By IC50 is commonly meant the concentration needed to halve the response being measured. Low values mean higher potency, high ones lower potency.

This experiment concerns secretion levels of IL-6 in PBMC cells. The experiment in a line: Inhibition of LPS+IL-1β-induced IL-6 secretion in PBMC (IL-6 ELISA). Particulars: human PBMC, 24 h compound pre-incubation, 20 h stimulation. The experiment is classed as cell-based. Here is the method:
This experiment was carried out in RPMI 1640 medium containing 10% FBS/1% penicillin/streptomycin, with each of the compounds at an initial test concentration of 1 μM. The compound DMSO was dissolved to form a stock solution, which was gradiently diluted 5-fold with the culture medium to a 4× working solution concentration. The diluted solution was added to a 96-well plate with 50 μL per well. PBMC (batch No.: HPP20062307, Sichuan Hope Bio-tech Co., Ltd.) cells were counted, and diluted to a concentration of 2×10^6/mL. The diluted cells were added to the above compound-containing 96-well plate with 150 μL per well, fully mixed, and incubated in an incubator with 5% CO2 at 37° C. for 24 h. Then, LPS and […] were further added to final concentrations of 10 ng/mL and 20 ng/mL, respectively, and the cells were further incubated in the incubator with 5% CO2 at 37° C. for 20 h. Then, after centrifugation at 2,000 rpm for 4 min, the supernatant was diluted 110×, and detected using an IL-6 ELISA kit. An OD450 value was read, and converted to an IL-6 concentration based on a standard curve, to calculate an IC50 value by fitting a dose-effect curve using GraphPad 5.0.
Background: An ELISA detects its analyte on a solid surface through an enzyme-linked reagent.
`Cc1nn(C2CCC(=O)NC2=O)c2cccc(N3CCC(CN4CCC(n5cc6cc(NC(=O)c7cnn8cccnc78)c(N7CCOCC7)cc6n5)CC4)CC3)c12` (stereo not shown) [TM-51] came in with a half-maximal inhibitory concentration (IC50) of 9.15 nM.

`COc1cc2nn([C@H]3CC[C@H](CN4CC5CN(c6cccc7c6c(C)nn7C6CCC(=O)NC6=O)CC5C4)CC3)cc2cc1NC(=O)c1cccc(C)n1` (stereo partly shown) [TM-35] returned a half-inhibitory concentration (IC50) of 29.5 nM. This IC50 is about 3.2-fold higher than that of the compound before.

Compound `Cc1nn(C2CCC(=O)NC2=O)c2cccc(OC3CCN(C[C@H]4CC[C@H](N5Cc6cc(NC(=O)c7cnn8cccnc78)c(N7CCOCC7)cc6C5=O)CC4)CC3)c12` (stereo partly shown) [TM-60] had an IC50 of 4.4 nM.

For the compound `Cc1nn(C2CCC(=O)NC2=O)c2cccc(N3CCN(C[C@H]4CC[C@H](n5cc6cc(NC(=O)c7cnn8cccnc78)c(N7CCOC8(CC8)C7)cc6n5)CC4)CC3)c12` (stereo partly shown) [TM-47], the IC50 was determined as 45.8 nM.

Regarding `Cc1nn(C2CCC(=O)NC2=O)c2ccnc(N3CCN(C[C@H]4CC[C@H](n5cc6cc(NC(=O)c7cnn8cccnc78)c(N(C)C)cc6n5)CC4)CC3)c12` (stereo partly shown) [TM-103], the IC50 came out at 0.72 nM.

In the case of `COc1cc2nn([C@H]3CC[C@H](CN4CC5CN(c6cccc7c6c(C)nn7C6CCC(=O)NC6=O)CC5C4)CC3)cc2cc1NC(=O)c1cccc(C(F)(F)F)n1` (stereo partly shown) [TM-36], the IC50 came out at 4.99 nM.

`Cc1nn(C2CCC(=O)NC2=O)c2cccc(N3CCN(C[C@H]4CC[C@H](n5cc6cc(NC(=O)c7cnn8cccnc78)c(N(C)C)cc6n5)CC4)CC3)c12` (stereo partly shown) [TM-70] showed a 50% inhibitory concentration (IC50) of 1.18 nM.

`Cc1nn(C2CCC(=O)NC2=O)c2nccc(N3CCC4(CC3)CN(CC3CCC(n5cc6cc(NC(=O)c7cnn8cccnc78)c(N(C)C)cc6n5)CC3)C4)c12` (stereo not shown) [TM-114]: the IC50 was determined as 4.79 nM.

In turn, `Cc1nn(C2CCC(=O)NC2=O)c2cccc(N3CCN(C[C@H]4CC[C@H](n5cc6cc(NC(=O)c7cnn8cccnc78)c(N7CCOC[C@H]7C)cc6n5)CC4)CC3)c12` (stereo partly shown) [TM-73] had an IC50 of 43.8 nM.

Compound `Cc1nn(C2CCC(=O)NC2=O)c2cccc(N3CCN(C[C@H]4CC[C@H](n5cc6cc(NC(=O)c7cnn8cccnc78)c(N7CCO[C@@H](C)C7)cc6n5)CC4)CC3)c12` (stereo partly shown) [TM-52] returned an IC50 of 10.5 nM.

With `Cc1nn(C2CCC(=O)NC2=O)c2ccc(N3CC4CN(C[C@H]5CC[C@H](n6cc7cc(NC(=O)c8cnn9cccnc89)c(N8CCOCC8)cc7n6)CC5)CC4C3)cc12` (stereo partly shown) [TM-40], the IC50 amounted to 138 nM.

Compound `Cc1nn(C2CCC(=O)NC2=O)c2cccc(N3CCC(CN4CCC(N5Cc6cc(NC(=O)c7cnn8cccnc78)c(N7CCCOCC7)cc6C5=O)CC4)CC3)c12` (stereo not shown) [TM-68] showed an IC50 of 3.23 nM.

For `COc1cc2nn([C@H]3CC[C@H](CN4CC5CN(c6ccc7c(c6)c(C)nn7C6CCC(=O)NC6=O)CC5C4)CC3)cc2cc1NC(=O)c1cccc(C(F)(F)F)n1` (stereo partly shown) [TM-39], the IC50 was 115 nM.

In turn, `Cc1nn(C2CCC(=O)NC2=O)c2cccc(N3CCN(C[C@H]4CC[C@H](n5cc6cc(NC(=O)c7cnn8cccnc78)c(N7CCOC[C@@H]7C)cc6n5)CC4)CC3)c12` (stereo partly shown) [TM-74] showed an IC50 of 29.4 nM.

Compound `Cc1nn(C2CCC(=O)NC2=O)c2cccc(N3CCN(C[C@H]4CC[C@H](N5Cc6cc(NC(=O)c7cnn8cccnc78)c(N7CCO[C@H](C)C7)cc6C5=O)CC4)CC3)c12` (stereo partly shown) [TM-63] had an IC50 of 0.9 nM.

The compound `Cc1nn(C2CCC(=O)NC2=O)c2cccc(N3CC4CN(C[C@H]5CC[C@H](n6cc7cc(NC(=O)c8cnn9cccnc89)c(N8C[C@H]9C[C@@H]8CO9)cc7n6)CC5)CC4C3)c12` (stereo partly shown) [TM-62] had an IC50 of 11.9 nM.

Compound `Cc1nn(C2CCC(=O)NC2=O)c2cccc(N3CC4CN(C[C@H]5CC[C@H](n6cc7cc(NC(=O)c8cnn9cccnc89)c(C(F)F)cc7n6)CC5)CC4C3)c12` (stereo partly shown) [TM-50] had an IC50 of 3.81 nM. This IC50 is about 3.1-fold lower than that of the compound before.

For `Cc1nn(C2CCC(=O)NC2=O)c2cccc(N3CCC(CN4CCC(N5Cc6cc(NC(=O)c7cnn8cccnc78)c(N7CCOCC7)cc6C5=O)CC4)CC3)c12` (stereo not shown) [TM-67], the IC50 was 52.8 nM.

Turning to `Cc1nn(C2CCC(=O)NC2=O)c2cccc(N3CC4CN(C[C@H]5CC[C@H](n6cc7cc(NC(=O)c8cnn9cccnc89)c(N8CCO[C@@H](C)C8)cc7n6)CC5)CC4C3)c12` (stereo partly shown) [TM-53], it took 38.5 nM to reach half-maximal inhibition (IC50). The IC50 values of the last two compounds are within 1.5-fold of each other.

The values are drawn from patent publication US20260146044A1, “AROMATIC COMPOUND, PHARMACEUTICAL COMPOSITION CONTAINING SAME, AND USE THEREOF” (Increland, priority 2023, published 2026).
